Reference: the METLIN SMRT retention time set (Domingo-Almenara et al. 2019)

Assay: gradient 5% acetonitrile 3 min, to 50% in 2 min, to 85% in 15 min, held 3 min, 100 µL/min
Conditions: column: Zorbax Extend-C18 2.1 x 50 mm; eluents: water / acetonitrile, 0.1% formic acid
Method in brief: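 Using water and acetonitrile that each contained 0.1% formic acid, mixtures of ~100 pure standards were separated at 100 μL/min on a Zorbax Extend-C18 column (2.1 × 50 mm, 1.8 μm). The HPLC fed a quadrupole time-of-flight mass spectrometer working in positive and negative ionization mode, with dead and dwell volumes of 40 μL and 900 μL. Data were acquired over 3 months. Retention time was read from computationally picked adduct peaks after manual inspection of each.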

| RP-LC retention time [s] | SMILES |
| --- | --- |
| 940 | Cc1sc(NC(=O)C2CCCCC2)nc1-c1ccc2c(c1)NC(=O)C(C)O2 (stereo not given) |
| 772 | CC(C)c1ccc(NC(=O)Cn2ccc3c(=O)n(C)c(=O)n(C)c32)cc1 |
| 754 | CCOCCCNC(=O)CCc1nnc2ccc(-c3ccc(C)c(C)c3)nn12 |
| 650 | CC(=O)Nc1ccc(CCc2nc3ccc(C(=O)NC4CCCCCC4)cc3[nH]2)cc1 |
| 596 | COC(=O)CNC(=O)Nc1ncc(-c2ccccc2)n1C |
| 924 | COc1ccc(-c2cc(C(=O)N(C)C3CCCCC3)nn2C2CCS(=O)(=O)C2)cc1 (stereo not given) |
| 720 | CCCC(NC(=O)Cc1ccc(OC)c(Cl)c1)C(=O)Nc1nc2ccccc2[nH]1 (stereo not given) |
| 893 | Cc1c(C(=O)NCCOc2cccc(C(F)(F)F)c2)cccc1[N+](=O)[O-] |
| 758 | CCCNC(=O)N1CCCC1c1nc(-c2ccc(OC)cc2)no1 (stereo not given) |
| 781 | CN(C)C(=O)CCc1ccc2c(c1)CN(C(=O)CC1CCCC1)CCO2 |
| 736 | COC(=O)c1cccc(NC(=O)N2CCC3(CC2)NC(=O)c2ccccc2O3)c1 |
| 705 | CCCn1c(CCNC(=O)c2ccc(C)c(C)c2)nc2cccnc21 |
| 676 | Cc1cc(C)c2c(SC(C)C)nc(N)nc2n1 |
| 544 | O=C(NC1CC1)c1ccc(N2CCC(NCc3cc(F)ccc3O)C2)nc1 (stereo not given) |
| 1220 | Cc1ccc(-c2coc(-c3ccc(NC(=O)C(C)(C)C)cc3)n2)cc1 |
| 774 | COc1ccc(-c2cn3c(CC(=O)Nc4ccc(F)c(F)c4)csc3n2)cc1OC |
| 925 | COCC(C)Nc1ncnc2c1cnn2-c1cccc(Cl)c1 (stereo not given) |
| 722 | COc1ccc(NC(=O)NC2CCN(c3ccc(F)cc3)C2=O)cc1OC (stereo not given) |
| 623 | CN(CCCNC(=O)c1ccc2c(c1)NC(=O)C1CCCCN21)C1CCCCC1 (stereo not given) |
| 1350 | Brc1ccc(-c2noc(Cc3nc(-c4ccccc4)cs3)n2)cc1 |
| 795 | Cc1ccc(S(=O)(=O)N2CC(Cc3nncn3C3CCCC3)C2)cc1Cl |
| 565 | Cn1ccnc1C(=O)N1CCc2nn(CC3CC3)c(=O)n2CC1 |
| 1110 | CC(C)c1ccc(S(=O)(=O)N2CCc3c(c(-c4nnc(-c5ccccc5)o4)nn3C)C2)cc1 |

| RP-LC retention time [s] | SMILES |
| --- | --- |
| 838 | Cc1ccc(NC(=O)C2CCCN(c3ncnc4c3nc3n4CCCCC3)C2)cc1 (stereo not given) |
| 586 | COc1ccc(C(=O)Nc2cccc(-c3csc(C)n3)c2)nn1 |
| 709 | Cc1cc(NC(=O)CN2C(=O)c3ccccc3C2=O)n(-c2ccccc2)n1 |
| 661 | O=C(Nc1cccc(OC(F)(F)F)c1)C1(CCO)CCN(c2ncccn2)C1 (stereo not given) |
| 1240 | c1ccc(-c2noc(-c3cc(N4CCOCC4)nc4ccccc34)n2)cc1 |
| 842 | Cc1ccc(NC(=O)C2CC(=O)N(CCc3c[nH]c4ccc(C)cc34)C2)c(C)c1 (stereo not given) |
| 770 | Cn1nc(-c2nc(-c3ccccc3F)no2)c2c1CCN(C(=O)C1CCCO1)C2 (stereo not given) |
| 629 | O=C(CSc1ccc(F)cc1)NCC1(CO)CC1 |
| 777 | COc1cc(=O)n2c(c1C(=O)Nc1ccc(Br)cc1F)CCCC2 |
| 948 | O=S(=O)(Cc1ccccc1F)N1CCCCC1c1nc(-c2ccccc2)n[nH]1 (stereo not given) |
| 612 | COc1cc(NC(=O)C2(C)CCCCC(=O)N2)cc(OC)c1 (stereo not given) |
| 902 | CC(C)CC(=O)N1CCN(c2ccc(=O)n(-c3ccc(C(C)C)cc3)n2)CC1 |
| 599 | O=C(NCC1(CO)CC1)c1ccccc1F |
| 761 | CN1c2cc(F)ccc2C(=O)NC12CCN(C(=O)NCCc1ccccc1)CC2 |
| 790 | O=C1CN(C(=O)Cc2ccc(OC(F)(F)F)cc2)C2(CCCC2)CN1 |
| 785 | Cc1ccc(NC(=O)Cn2ccc3sccc3c2=O)cc1F |
| 676 | Cc1ccc2c(=O)c(C(=O)N3CCCC3)cn(CC(=O)NC3CCCCC3)c2n1 |
| 612 | Cc1cc(N2CCN(C)CC2)nc2ccc(NC(=S)NCc3ccc(F)cc3Cl)cc12 |
| 638 | Cc1ccc(S(=O)(=O)N2CCC3(CC2)CN(C)CC3c2noc(C3CC3)n2)cc1 (stereo not given) |
| 744 | COc1ccc2[nH]cc(CCN3CC(C(=O)Nc4nnc(C(C)(C)C)s4)CC3=O)c2c1 (stereo not given) |
| 952 | CCc1nc(-c2csc(S(=O)(=O)N3CCC(C(=O)Nc4ccccc4)CC3)c2)no1 |
| 800 | O=C(c1ccc(F)c(Cl)c1)N1CCN(c2cc(-c3cccs3)[nH]n2)CC1 |
| 934 | COc1ccc(Cl)cc1NC(=O)C1CCCN(c2ncnc3c2nc2n3CCCCC2)C1 (stereo not given) |

| RP-LC retention time [s] | SMILES |
| --- | --- |
| 817 | COc1ccc(CNC(=O)NCC2(c3ccc(F)cc3)CC2)cc1 |
| 1290 | Cc1ccc(C2Cn3nnc(-c4nc(-c5ccccc5Cl)no4)c3CO2)c(C)c1 (stereo not given) |
| 676 | Cc1ccc2cc(CCC(=O)N3CCCN(c4ncccn4)CC3)c(=O)[nH]c2c1 |
| 717 | O=C1CCCc2cc(S(=O)(=O)N3CCC(C(=O)NCCc4cccs4)CC3)ccc2N1 |
| 737 | Cc1nc(OCC(=O)Nc2cccc(C)c2C)c2ccccc2n1 |
| 868 | CC(NC(=O)c1cnc(-c2ccccc2)nc1-c1ccncc1)c1ccc(F)cc1 (stereo not given) |
| 1180 | O=C1c2ccccc2C(=O)c2c(NCCc3ccc(O)cc3)ccc(NCCc3ccc(O)cc3)c21 |
| 1400 | CCCN1C(=O)COc2ccc(-c3noc(-c4cccc(Br)c4)n3)cc21 |
| 734 | Cc1cccc(Nc2nc(-c3ccncc3)cs2)c1 |
| 1210 | COc1ccccc1NC(=O)c1c(O)c2cccnc2n(-c2cccc(F)c2)c1=O |
| 558 | CCc1ccc(CN2CCC([C@@H]3CNC[C@H]3CO)CC2)cc1 |
| 777 | Cc1noc(C)c1C1CCCN1C(=O)Cc1cccc(F)c1 (stereo not given) |
| 610 | CN(C)c1ccc2c(c1)CN(C(=O)C1CC=CC1)CCO2 |
| 1060 | Cc1noc(C)c1-c1ccc(S(=O)(=O)N2CCCc3ccccc32)cc1 |
| 764 | O=C(c1nnc(-c2ccc(S(=O)(=O)N3CCCC3)cc2)o1)N1CCCC1 |
| 792 | COc1cc(NC(=O)CCc2c(C)nn(-c3cc(N(C)C)ncn3)c2C)cc(OC)c1 |
| 687 | Cc1sc(NC(=O)CCc2ccccc2)nc1-c1ccc2c(c1)NC(=O)C(C)O2 (stereo not given) |
| 957 | O=C(c1ccc(Cl)cc1)N1CCN(c2ccc([N+](=O)[O-])c3ncccc23)CC1 |
| 619 | CCn1cc(C)c(C(=O)O)c1CC(=O)N1CCOCC1 |
| 811 | O=C(CN1C(=O)NC(c2ccc(Cl)cc2)C2=C1COC2=O)NCc1ccccc1Cl (stereo not given) |
| 936 | CC(C)c1ccc2occ(CC(=O)N(Cc3ccc(N(C)C)cc3)C3CCS(=O)(=O)C3)c2c1 (stereo not given) |
| 1070 | COc1ccccc1N1CCN(c2cc(SCC(=O)Nc3cc(C)cc(C)c3)ncn2)CC1 |
| 717 | O=C(O)c1cccc(Nc2c(-c3ccc([N+](=O)[O-])cc3)nc3cnccn23)c1 |

| RP-LC retention time [s] | SMILES |
| --- | --- |
| 718 | CCOC(=O)C(C)Sc1nnc2n1CCN2c1ccc(F)cc1 (stereo not given) |
| 765 | CSc1ccc(CCNC(=O)c2ccc3c(c2)nc(C)c(=O)n3C)cc1 |
| 635 | COc1ccc(NC(=O)N2CCC(c3nc(C(=O)N(C)C)c(C)o3)CC2)c(OC)c1 |
| 595 | CN(C)C[C@@H]1CN(c2ccncn2)C[C@H]1NC(=O)c1ccc2ccccc2n1 |
| 621 | CCc1ccc2nc(NCc3ccccn3)sc2c1 |
| 853 | CC(C)NC(=O)N1CCc2c(c(-c3nc(-c4cccc(F)c4)no3)nn2C)C1 |
| 1080 | CCOc1ccc(-c2noc(Cn3c(=O)n(C(C)C)c(=O)c4ccccc43)n2)cc1OC |
| 671 | CNC(=O)c1csc(N2CCCC2)n1 |
| 850 | CCn1ccc2sc(C)c(C(=O)NCc3ccc(C)cc3)c2c1=O |
| 653 | Cc1sc(C)c(S(=O)(=O)NCc2ccccc2Cl)c1-c1cc(C(F)(F)F)on1 |
| 661 | CCN(CCCNC(=O)c1nnc(-c2ccc(S(=O)(=O)N3CCCC3)cc2)o1)Cc1ccccc1 |
| 900 | CCN(CC)C(=O)c1cnc2snc(C)c2c1N1CCC(C(=O)Nc2ccc(OC)c(Cl)c2)CC1 |
| 1030 | COc1ccc(CNC(=O)c2cc3sc(Cl)cc3n2C)cc1 |
| 838 | COc1ccccc1-c1noc(C2CCCN2C(=O)Cc2c[nH]c3ccccc23)n1 (stereo not given) |
| 687 | N#Cc1cccc(-c2cn3c(n2)N(C(=O)c2cnccn2)CCC3)c1 |
| 720 | CCc1nnc(-c2cc(NC(=O)Cc3c[nH]c4ccccc34)c(C)s2)o1 |
| 955 | CN1C(=O)c2ccccc2Oc2ccc(C(=O)NCc3ccc(Br)cc3)cc21 |
| 759 | CC(C)NC(=O)c1ccc(Cn2c(SCC#N)nc3cc4c(cc3c2=O)OCO4)cc1 |
| 852 | CCC(=O)N1CCc2ccccc2C1C(=O)N1CCN(c2ccccc2)CC1 (stereo not given) |
| 806 | COc1ccccc1NC(=O)N1CCC2(CC1)NC(=O)c1cc(Cl)ccc1N2C |
| 743 | CCS(=O)(=O)N1CC(F)(F)C[C@H]1c1nc(-c2cccnc2)no1 |
